pEC50: −log10 of the molar value. Values belong to the compound of their own block, whether it stands above or below them.
Tests used:
[1] = system: SMN-containing gems in fibroblast cells from a type 1 SMA patient (3813 cells); assay: Gem count by immunohistochemistry in type 1 SMA patient fibroblasts (3813 cells); format: cell-based, human; settings: 48 hours
From the text: SMN protein can be found in punctate nuclear particles called “gems” (Liu and Dreyfuss, EMBO J. 15(14): 3555-3565 (1996)). In fibroblast cells derived from SMA patients, the number of gems corresponds to disease severity as follows: severe type 1 patients have approximately 5 gems per 100 nuclei; mild type 3 patients have 20-50 gems per 100 nuclei; normal individuals have approximately 100-150 gems per 100 nuclei (Coovert et al., Hum Mol Genet 6(8): 1205-1214 (1997), Young et al., Exp Cell Res 265(2): 252-261 (2001)).
Following these methods, fibroblast cells from a type 1 SMA patient (3813 cells, Coriell Cell Repositories) were treated for 48 hours with the compounds indicated in Table 2 (reference number—structure correlation is provided in Table 1). The cells were then fixed and incubated with a monoclonal antibody against SMN (4B7, Wolstencroft et al., Hum Mol Genet 14:1199-1210 (2005)). A FITC-conjugated anti-mouse secondary antibody was used to visualize the labeled gems.

[2] = system: SMN2-linked luciferase-reporter gene construct; assay: SMN splice reporter assay (SMN2-linked luciferase reporter, Example 10); format: cell-based; settings: for pEC50: SMN2-linked luciferase reporter; for pEC50 / maximal fold induction: average; for maximal fold induction: maximum fold increase of reporter signal, read-out: SMN Splice Reporter Assay (Example 10) Avg MaxFold Increase
Outline: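 Cervical carcinoma cells stably carrying an SMN2–luciferase splice reporter, in which luciferase is in frame only when SMN2 exon 7 is included, were treated with compound. Luciferase activity was read and expressed as fold increase over untreated transformed cells.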

[3] = system: luciferase reporter containing the UAG stop codon; assay: Translational read-through luciferase reporter assay, UAG stop codon; format: cell-based; settings: read-out: MaxFold Increase
From the text: This assay is described in detail in WO 01/44516 A2. This is a cell-based luciferase reporter assay designed to detect translational read-through via insertion of a translational stop codon within the luciferase coding sequence. In the presence of compounds that promote read-through of translational stop codons, active luciferase is produced and detected via chemiluminescence. We have shown that indoprofen analogs are active in two versions of this assay—one containing a UGA stop codon and one containing a UAG stop codon. The data in the table is from the luciferase reporter containing the UAG stop codon. This is the first stop codon downstream of the improper splice junction between exons 6 and 8 in the human SMN2 transcript.

SMN = assay: Western blot of SMN in SMA type I fibroblasts (3813 cells); format: cell-based, human; settings: 48 hours, DMSO = 1
Procedure: Westerns blots were performed using the methods of Mattis et al., Hum Genet 120:589-601(2006)). SMA type I fibroblasts (3813 cells; Coriell Cell Repositories) were treated with compounds for 48 hours. Monoclonal anti-SMN antibody 4B7 (Wolstencroft et al., Hum Mol Genet 14:1199-1210 (2005)) was used to identify SMN. Actin was used as an internal normalization standard and detected with an anti-actin polyclonal rabbit antibody (Sigma-Aldrich). Tobramycin was used for the positive control compound treatment. DMSO is the untreated negative control. Values are presented as the ratio of the signals obtained for SMN and Actin.

SMN protein = settings: cited from earlier work
SMA model mouse fetuses = settings: administered in utero; cited from earlier work

pEC50 [2]: 7.31
SMILES: CCCc1ccc2c(c1)C(=O)N(c1ccc(C(C)C(=O)O)cc1)C2 (centres unmarked) [ALB-113310]
Number of gems per 100 nuclei, Treated Cells ([1]; 3 μM): 53.5 gems per 100 nuclei | maximal fold induction [2]: 2.1 | maximal fold induction [3]: 3.7 | SMN:Actin Ratio (SMN; 0.1 uM): 4.8 | SMN:Actin Ratio (SMN; 1 uM): 6.2

pEC50 [2]: 7.09
SMILES: COc1ccc2c(c1)C(=O)N(c1ccc(C(C)C)cc1)C2 [ALB-115069]
Number of gems per 100 nuclei, Treated Cells ([1]; 1 μM): 45.25 gems per 100 nuclei | maximal fold induction [2]: 1.5 | SMN:Actin Ratio (SMN; 0.1 uM): 4.3 | SMN:Actin Ratio (SMN; 1 uM): 5.7

melting point: 175 to 177 °C
SMILES: CCCc1ccc2c(c1)C(=O)N(c1ccc(C(C)C(=O)O)cc1)C2 (centres unmarked) [Example 2, 2-(4-(1-oxo-6-propylisoindolin-2-yl)phenyl)propanoic acid]

melting point: 116 to 118 °C
SMILES: COCC(C)c1ccc(N2Cc3ccc(OC)cc3C2=O)cc1 (centres unmarked) [Example 4, 6-methoxy-2-(4-(1-methoxypropan-2-yl)phenyl)isoindolin-1-one]

melting point: 206 to 209 °C
SMILES: CC(C)c1ccc(N2Cc3ccc(Cl)cc3C2=O)cc1 [Example 5, 6-chloro-2-(4-isopropylphenyl)isoindolin-1-one]

melting point: 225 to 227 °C
SMILES: CC(C)c1ccc(N2Cc3ccc([N+](=O)[O-])cc3C2=O)cc1 [Example 6, 2-(4-isopropylphenyl)-6-nitroisoindolin-1-one]

SMILES: CC(C(=O)O)c1ccc(N2Cc3ccccc3C2=O)cc1 (centres unmarked) [Indoprofen]
luciferase activity in SMN splice reporter assay ([2]; cervical carcinoma cell lines with SMN2-luciferase reporter): increases luciferase activity | production of SMN from the endogenous SMN2 gene (SMN protein; SMA patient fibroblasts): increase in production of SMN | level of expression of SMN protein (SMN protein; cultured cells, Lunn et al. 2004): increases the level of expression of SMN protein | maximal fold induction [3]: 2.3 | survival of SMA model mouse fetuses (SMA model mouse fetuses): increase survival
